Results on 2 molecules are retold here after publication PMC9186373, “Design, synthesis, and biological evaluation of novel carbazole derivatives as potent DNMT1 inhibitors with reasonable PK properties” (Journal of Enzyme Inhibition and Medicinal Chemistry, 2022).

Test [1] relates to EZH2. The test is described as follows: Methylation inhibition assay (AlphaLisa), EZH2. The note with it: 50 µM; for inhibitory activity against EZH2: Figure 3; for Relative selectivity index of DNMT1 vs EZH2: 1 - selected enzyme inhibition/DNMT1 inhibition. It is filed as biochemical. As for the experimental part: (§1) All the compounds were first screened using an ELISA EpiQuik DNA methyltransferase (DNMT) activity/inhibitor assay kit (Epigentek). To measure the effects of the compounds on human DNMT1 activity, 200 nM purified DNMT1 was incubated with 50 µM and 100 µM of the different compounds and S-adenosylmethionine in the DNMT assay buffer in the assay plate at 37 °C for 2 h[36]. Next, every sample was incubated with the capture and detection antibody, followed by incubation with developer solution for 10 min at room temperature. The absorbance was measured at 450 nm using a POLARstar Omega microplate reader (BMG). S-Adenosylhomocysteine (AdoHcy) was used as a positive control. Methylation inhibition assays for EZH2, LSD, and G9a were performed in modified Tris, pH 9.0, buffer using AlphaLisa technology. An amount of 10 µL of the reaction system contained a corresponding concentration of SAM (Sigma) (EZH2 50 µM, LSD 50 µM, and G9a 50 µM), which was the Km value in each enzymatic reaction, plus 100 nM biotinylated peptide H3 (1–21) (synthesis by GLChina) and the relevant enzyme concentration (0.03 nM EZH2, 0.03 nM LSD, and 0.03 nM G9a). The proteins were preincubated with various compound concentrations for 15 min at room temperature before the substrate and SAM were added. After 60 min of incubation at room temperature, acceptor and donor AlphaLisa beads were added according to the manufacturer’s recommendations. The signals were read in Alpha mode with an EnSpire multimode plate reader (PerkinElmer). IC50 values were derived by fitting the data for the inhibition percentage to a dose-response curve by non-linear regression in GraphPad Prism 5.0[20].
(§2) In addition to DNMT1, there are many other methyltransferases that can bind with S-adenosyl-L-methionine (SAM) to facilitate transmethylation reactions[24]^,[25]. To investigate the selectivity of these potent compounds for DNMT1, we then evaluated the inhibitory activities against DNMT1 and other important methyltransferases at the concentration of 50 µM, including DNMT3A/3L, DNMT3B/3L, and other SAM-dependent enzymes[1]^,[2]^,[26], such as EZH2[27], LSD1[28], G9a (histone H3 lysine 9 methyltransferase)[29].
(§3) 493 Relative selectivity index
(§4) 494 Relative selectivity index of DNMT1 is calculated by formula: DNMT1-selectivity
(§5) 495 index =1 - selected enzyme inhibition/DNMT1 inhibition. The closer
(§6) 496 that this value is to 1 or even more than 1, the better DNMT1-selectivity the of the
(§7) 498 Table S1. Relative selectivity index of DNMT1
Cpd. […]

The subject of test [2] is DNMT3B/3L. The experiment in a line: Methyltransferase enzymatic selectivity profiling, DNMT3B/3L. Format: biochemical. Particulars: 1 - selected enzyme inhibition/DNMT1 inhibition; 50 µM. As for the experimental part: as §2
(§8) Here, the selectivity of non-nucleoside DNMT1 inhibitors is somewhat predictable because other methyltransferases mentioned above catalyse different substrates and share very low homology with DNMT1, even in their catalytic domain[30–32]. Subsequently, the screened compounds were evaluated in a dose-dependent assay against HCT116 (human colon cancer cell line) and A549 (human lung carcinoma cell line).
as §3, §4, §5, §6, §7
Cpd. […]

For test [3], the system named is HCT116 (human colon cancer cells). The experiment in a line: MTT assay, HCT116. It is filed as cell-based. The method, then:
(§9) The human lung cancer cells (A549) and human colon cancer cells (HCT116) were cultured in an RPMI-1640 medium containing 10% FBS, 100 U/mL streptomycin, and 100 U/mL penicillin at 37 °C in a humidified atmosphere with 5% CO2. All compounds were dissolved in DMSO and stock solutions were stored at −20 °C. Reagents were freshly diluted to the marked concentrations with a culture medium before use. DMSO concentration in experimental conditions never exceeded 0.1% (v/v). All cell lines were provided by the cell laboratory, School of pharmaceutical sciences, Guangzhou Medical University.
(§10) Cell viability was detected using an MTT assay kit. Cells were seeded into 96-well plates at a density of ∼1.0 × 10^4/well. 24 h later, sextuplicate wells were treated with media and new compounds at a fixed concentration (50 µM). After 24, 48, and 72 h, the drug-containing medium was replaced by a 100 µL fresh medium with 5 mg/mL MTT solution. After 4 h of incubation, the medium with MTT was removed, and 100 µL of DMSO was added to each well. The plates were gently agitated until the purple formazan crystals were dissolved, and the OD490 was determined using a […] (Olympus BX53, Japan). The data were calculated and plotted as the percent viability compared to the control.

Test [4] concerns the target DNMT1 (Homo sapiens, UniProt P26358). The test is described as follows: H3-labelled radioactive methylation assay. The note with it: H3-labeled radioactive methylation assay; 40 nM DNMT1. Format: biochemical. Put shortly: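 DNMT1 (40 nM) was preincubated with a compound range for 15 min at room temperature, then given 0.1 µM ^3H-SAM and 0.25 µg/mL poly(dI-dC)·poly(dI-dC) in 50 mM Tris-HCl pH 8.0, 1 mM DTT, 5% glycerol, 100 µg/mL BSA. After 60 min at 37 °C, filter-bound radioactivity was counted by scintillation. IC50 was taken from a non-linear dose-response fit.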

For test [5], the system named is human DNMT1. The test is described as follows: ELISA EpiQuik DNA methyltransferase (DNMT) activity/inhibitor assay. Format: biochemical. The note with it: 200 nM purified DNMT1, EpiQuik kit; for Inh% at 50 μM: 50 μM compound; for Inh% at 100 μM: 100 μM compound. Put shortly:
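Purified human DNMT1 (200 nM) was incubated 2 h at 37 °C with SAM and compound at 50 µM and 100 µM. Methylation was detected by antibody-based ELISA read at 450 nm.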

Test [6] concerns G9a (histone H3 lysine 9 methyltransferase). The experiment in a line: Methylation inhibition assay (AlphaLisa), G9a. Format: biochemical. Particulars: 50 µM; for inhibitory activity against G9a: Figure 3; for Relative selectivity index of DNMT1 vs G9a: 1 - selected enzyme inhibition/DNMT1 inhibition. As for the experimental part: as §1, §2, §3, §4, §5, §6, §7
Cpd. […]

The subject of test [7] is A549 (human lung cancer cells). The experiment in a line: MTT assay, A549. Format: cell-based. The method, then: as §9, §10
Test [8] relates to LSD1. The experiment in a line: Methylation inhibition assay (AlphaLisa), LSD1. Format: biochemical. The note with it: 1 - selected enzyme inhibition/DNMT1 inhibition; 50 µM. As for the experimental part: as §1, §2, §3, §4, §5, §6, §7
Cpd. […]

Test [9] relates to DNMT3A/3L. The experiment in a line: Methyltransferase enzymatic selectivity profiling, DNMT3A/3L. Particulars: 1 - selected enzyme inhibition/DNMT1 inhibition; 50 µM. Format: biochemical. The method, then: as §2, §8, §3, §4, §5, §6, §7
Cpd. […]

[10] abbreviates: HCT-116, 24 h, read-out: Inh % at 50 μM, HCT116, 24 h.
The mark [11] stands for this setting: HCT-116, 48 h, read-out: Inh % at 50 μM, HCT116, 48 h.
Setting [12] is: HCT-116, 72 h, read-out: Inh % at 50 μM, HCT116, 72 h.
The mark [13] stands for this setting: 24 h, read-out: Inh % at 50 μM, A549, 24 h.
[14] abbreviates: 48 h, read-out: Inh % at 50 μM, A549, 48 h.
Where [15] appears, read: 72 h, read-out: Inh % at 50 μM, A549, 72 h.

Where two headings read alike, the source gives them in different places.

DNMT1, sequence (P26358 whole entry): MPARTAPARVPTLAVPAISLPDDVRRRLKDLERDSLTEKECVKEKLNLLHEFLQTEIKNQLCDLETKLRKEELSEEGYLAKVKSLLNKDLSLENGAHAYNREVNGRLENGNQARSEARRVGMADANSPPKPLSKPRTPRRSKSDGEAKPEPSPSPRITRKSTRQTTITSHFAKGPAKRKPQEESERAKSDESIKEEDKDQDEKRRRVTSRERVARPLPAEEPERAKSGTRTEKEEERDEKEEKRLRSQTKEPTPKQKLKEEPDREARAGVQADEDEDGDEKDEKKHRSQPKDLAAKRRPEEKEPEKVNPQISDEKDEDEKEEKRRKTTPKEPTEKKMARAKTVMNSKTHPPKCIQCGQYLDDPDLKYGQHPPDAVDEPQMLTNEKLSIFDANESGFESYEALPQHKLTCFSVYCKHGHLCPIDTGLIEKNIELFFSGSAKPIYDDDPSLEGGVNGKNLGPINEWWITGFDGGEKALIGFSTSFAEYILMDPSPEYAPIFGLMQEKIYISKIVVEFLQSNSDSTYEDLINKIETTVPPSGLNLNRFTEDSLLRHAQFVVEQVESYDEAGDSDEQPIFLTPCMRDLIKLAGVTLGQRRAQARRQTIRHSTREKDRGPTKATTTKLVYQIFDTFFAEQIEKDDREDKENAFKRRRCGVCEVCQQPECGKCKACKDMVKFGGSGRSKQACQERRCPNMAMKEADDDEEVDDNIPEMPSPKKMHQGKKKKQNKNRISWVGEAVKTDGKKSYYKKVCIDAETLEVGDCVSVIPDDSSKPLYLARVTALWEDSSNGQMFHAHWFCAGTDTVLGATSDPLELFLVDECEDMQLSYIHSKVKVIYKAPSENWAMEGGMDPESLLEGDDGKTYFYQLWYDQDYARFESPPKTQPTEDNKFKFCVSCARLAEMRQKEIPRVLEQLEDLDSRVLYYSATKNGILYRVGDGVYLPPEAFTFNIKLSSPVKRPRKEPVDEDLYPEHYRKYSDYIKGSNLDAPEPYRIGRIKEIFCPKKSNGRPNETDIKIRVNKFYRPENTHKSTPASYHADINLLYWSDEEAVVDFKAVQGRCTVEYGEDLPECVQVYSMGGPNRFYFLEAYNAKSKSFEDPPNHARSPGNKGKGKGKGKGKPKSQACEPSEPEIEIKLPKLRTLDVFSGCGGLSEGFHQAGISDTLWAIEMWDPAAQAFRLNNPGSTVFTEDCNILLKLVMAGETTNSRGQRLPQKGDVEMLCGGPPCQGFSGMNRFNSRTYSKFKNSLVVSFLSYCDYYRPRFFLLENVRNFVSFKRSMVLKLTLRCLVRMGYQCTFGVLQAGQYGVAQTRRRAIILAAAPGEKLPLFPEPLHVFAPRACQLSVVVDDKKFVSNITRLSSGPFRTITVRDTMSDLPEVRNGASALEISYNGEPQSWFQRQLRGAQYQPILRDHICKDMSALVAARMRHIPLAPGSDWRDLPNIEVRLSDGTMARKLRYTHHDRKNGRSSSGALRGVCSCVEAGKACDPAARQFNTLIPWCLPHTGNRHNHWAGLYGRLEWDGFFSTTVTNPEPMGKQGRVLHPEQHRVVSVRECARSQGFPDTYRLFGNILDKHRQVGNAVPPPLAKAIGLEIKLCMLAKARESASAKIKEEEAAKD

Turning to `CC(C)NCC(O)COC(Cn1c2ccc(F)cc2c2cc(F)ccc21)Cn1c2ccc(F)cc2c2cc(F)ccc21` (centres unmarked) [WK-22, 1-((1,3-Bis(3,6-difluoro-9H-carbazol-9-yl)propan-2-yl)oxy)-3-(isopropylamino)propan-2-ol], in [1], the “inhibitory activity against EZH2” value is on record as “nearly no inhibitory activities”. Besides, the “Relative selectivity index of DNMT1 vs EZH2” value in test [1] came to 0.96. Also, the “Relative selectivity index of DNMT1 vs DNMT 3B/3L” value in test [2] is 0.03. Further, the inhibition at 50 µM is 77.6% in test [3] (setting [10]); 91.8% in test [3] (setting [11]); 97.4% in test [3] (setting [12]); 64.3% in [7] (setting [13]); 98% in test [7] (setting [14]); 95.7% in test [7] (setting [15]). Moreover, in test [4], the IC50 amounted to 4.9 µM. Further, the “Inh% at 50 μM” value in [5] is reported as 99%. Also, in test [5], the “Inh% at 100 μM” value worked out at 100%. In test [6], the “inhibitory activity against G9a” value was “nearly no inhibitory activities”. For the same molecule, the “Relative selectivity index of DNMT1 vs G9a” value in [6] stood at 0.9. Further, the “Relative selectivity index of DNMT1 vs LSD1” value in test [8] was determined as 0.02. Besides, in test [9], the “Relative selectivity index of DNMT1 vs DNMT 3A/3L” value turned out to be 0.04.

Take `CC(C)NCC(O)COC(Cn1c2ccccc2c2cc(F)ccc21)Cn1c2ccccc2c2cc(F)ccc21` (centres unmarked) [WK-23, 1-((1,3-bis(3-fluoro-9H-carbazol-9-yl)propan-2-yl)oxy)-3-(isopropylamino)propan-2-ol]: the “inhibitory activity against EZH2” value in test [1] is given as “nearly no inhibitory activities”. Moreover, the “Relative selectivity index of DNMT1 vs EZH2” value in [1] amounted to 0.85. In [2], the “Relative selectivity index of DNMT1 vs DNMT 3B/3L” value is 0.02. For the same molecule, the inhibition at 50 µM in test [3] (setting [10]) is 87.7%; in test [3] (setting [11]), 92.9%; in [3] (setting [12]), 97.5%; in [7] (setting [13]) it was 75.9%; in test [7] (setting [14]), 58.1%; in test [7] (setting [15]), 93.6%. In addition, the IC50 in test [4] amounted to 5 µM. In test [5], the “Inh% at 50 μM” value came out at 99%. Besides, the “Inh% at 100 μM” value in [5] is 100%. For the same molecule, in [6], the “inhibitory activity against G9a” value is on record as “nearly no inhibitory activities”. For the same molecule, the “Relative selectivity index of DNMT1 vs G9a” value in test [6] was determined as 0.89. For the same molecule, in test [8], the “Relative selectivity index of DNMT1 vs LSD1” value is given as 0.2. In test [9], the “Relative selectivity index of DNMT1 vs DNMT 3A/3L” value worked out at 0.06.
